Source: US12083084B2, “Method for enhancing energy production and metabolism in cells” (REPLICON HEALTH OY, priority 2013, dated 2024)
Values joined by “and” are separate entries in the source; they are usually repeats but may differ in a detail not shown here. Equal values may be shown once. “Also recorded” adds a separate entry of the source.

How the values were obtained:
[1] = Plasma sample analyses on PYR, ALA, LAC and NO; assay type: in vivo, human
Method: As mentioned above also plasma samples were collected from S1 and S9, at 0 h and 1 h both in 12 h and 4.5 day test, i.e. 16 observations were gathered with either DGAcs or zero control situations. Additionally in statin group (S10 and S11) 2×2 measurements were done. Altogether there were 20 observations and, thus 10 differences between control and DGAcs administration can be calculated. Pyruvate concentrations were measured using Pyruvate Assay Kit from Sigma (MAK071 Sigma). Alanine concentrations were measured using Sigma Alanine Assay Kit (MAK001). Lactate concentrations were measured using Sigma Lactate Assay Kit (MAK064). And finally nitric oxide (NO) concentrations were measured using OxiSelect™ In Vitro Nitric Oxide (Nitrite/Nitrate) Assay Kit from Nordic Biosite Oy.

[2] = test system: primary human hepatocytes; assay: Cell viability by LDH release (CytoTox-One) in primary human hepatocytes; assay type: cell-based
Method: (§1) Primary human hepatocytes were purchased from Celsis In Vitro Technologies (1450 South Rolling Road Baltimore, MD 21227, USA). […] According to the information provided by the Celsis, hepatocytes from each donor should have at least 70% viability and more than 5 million viable cells. The medium for the culture of hepatocytes was provided by Celsis. They were InVitroGRO CP (for plating) medium (Z99029) and InVitroGRO HI (for incubation) medium (Z99009). Antibiotics (Torpedo Antibiotics Mix, Z990007) were also from Celsis. The thaw, plating and culture of cells were carried out according to the instruction provided by the Celsis In Vitro Technologies.
(§2) For the measurement of cell viability after treatment of test compound, CytoTox-One Homogeneous Membrane Integrity Assay kit (Promega, G7891) was used. The CytoTox-One Assay is a rapid fluorescent measure of the release of lactate dehydrogenase (LDH) from cells with a damaged membrane. The number of […] cells correlates to the fluorescence intensity determined by a fluorescence plate reader (Hidex Chameleon V multiplate reader, Hidex Oy, Turku, Finland) with excitation 544 nm and emission 590 nm. For the measurement of cellular reactive oxygen species (ROS), DCFDA Cellular ROS Detection Assay Kit from Abcam (ab113851) was used. Reactive oxygen species (ROS) assay kit (ab113851) uses the cell permeant reagent 2′,7′-dichlorofluorescein diacetate (DCFDA), a fluorogenic dye that measures hydroxyl, peroxyl and other ROS activity with the cell. The activity of ROS was measured by a fluorescence plate reader (Hidex) with excitation/emission wavelengths of 485 nm/535 nm.
(§3) The culture of primary hepatocytes was carried out based on the instructions provided by Celsis. After thawing, the cells were suspended in InVitroGRO CP medium. Thereafter the viability of cells was determined using the Trypan Blue exclusion method. Then the concentration of cells was adjusted using InVitroGRO CP medium, so about 30000-35000 cells/100 μl/well can be seeded in collagen I coated 96 well plate (BD, 734-0248).
(§4) After seeding, the cells were cultured overnight in the cell culture incubator (Sanyo MCO 18) at atmosphere of 95% air, 5% CO2 at 37° C. Thereafter, the culture medium for the cells was changed to InVitroGRO Hi (Hi Medium) containing test compound (D-glyceric acid calcium salt dehydrate) at the concentrations of 0, 0.2, 2 and 20 μg/ml (study 1, Table 1.1.1) and 0, 0.4, 2 and 10 μg/ml (study 2, Table 1.1.2).
(§5) After 24 h (in study 1) and 20 h (in studies 2-4) incubation medium was renewed. Second renewal of the incubation medium occurred at 48 h in study 1 and at 40 h in other studies. ROS and LDH were measured after 1.5-2 hours after last change of the medium, i.e. in a situation with moderate metabolic stress.
The measurement of LDH from medium (leaked LDH) and from cell and medium (total LDH) was carried out according to the instruction provided by the Promega (G7891). The plate was incubated at an incubator to achieve a temperature of 22° C. Thereafter, equal volume of CytoTox-ONE Reagent to cell culture medium (100 μl) was added to each well and mix for 30 seconds. Then they were incubated for 10 min at 22° C., and then 50 μl of Stop Solution was added to each well. After gentle mixing, the fluorescence signal was measured at an excitation wavelength of 560 nm and emission wavelength of 590 nm using the Hidex Chameleon V multiplate reader (Hidex Oy, Turku, Finland).
For the total LDH measurement, all the steps are same except a 2 μl of Lysis Solution (per 100 μl original volume) will be added to the each well to lyse the cells before CytoTox-ONE Reagents will be added.
For the LDH and ROS assays, individual values of each measurement were stored and average value of fluorescence signals of various repeats of each treatment at studied time point were calculated and compared. […] Viability (LDH) measurements contained 4-6 repeats depending on the study. […]

[3] = test system: primary human hepatocytes; assay: Cellular ROS detection (DCFDA) in primary human hepatocytes; assay type: cell-based; settings: for ROS production compared to 0 dose/control: donor four, High Medium, FIG. 5; for ROS compared to 0 dose/control (in words): moderate metabolic stress (1.5-2 h after change of medium)
Method: as §1, §2, §3, §4
In study 3 also LGA and HPA were tested and compared to DGA (see FIGS. 11c and 11d) with same doses as in study 2.
In studies 2-4 additional diet with 0.75 mM of palmitic acid (“fatty acid diet”) was added to Hi Medium. Hi Medium in itself contains ample amounts of glucose and fructose and other necessary ingredients for keeping viability of the cell culture at optimal level.
as §5
The measurement of cellular reactive oxygen species (ROS) was carried out according to the instruction of Abcam (ab113851). At the end of treatment time point, culture medium was taken away for leaked LDH measurement and cells were washed with 100 μl/well PBS once. Thereafter 100 μl/well of DCDA mix was added and incubated for 45 min at 37° C. in the dark. Then cells were washed once with 1× buffer solution. The fluorescence signal was measured at an excitation wavelength of 485 nm and emission wavelength of 535 nm using the Hidex Chameleon V multiplate reader (Hidex Oy, Turku, Finland).
For the LDH and ROS assays, individual values of each measurement were stored and average value of fluorescence signals of various repeats of each treatment at studied time point were calculated and compared. […]

[4] = average of measurements 1-10, vs zero control
[5] = healthy volunteer group only, S1 and S9

**Q.** Which “decline in NO” value ([1]; healthy individuals) does the source give for O=C(O)[C@H](O)CO [DGA, D-glyceric acid] here?
**A.** Its value is 13%.

**Q.** And the “increase of plasma/blood pyruvate levels” value ([1]; summary statement, humans, Example 2.3.3)?
**A.** The value was 20-25% and 25%.

**Q.** What about the “viability compared to 0 dose” value ([2]; donor alpha, 0.4 DGA dose, Hi Medium+palmitic acid, FIG. 10c) of the same compound?
**A.** The value was “statistically significant decrease in viability; also recorded: decline is statistically significant”.

**Q.** And the “hepatocytes viability increased in some cases by” value ([2]; donor alpha, FIG. 10c)?
**A.** The value was 40-60%.

**Q.** And the “viability of cells increased on average by” value ([2]; primary human hepatocytes)?
**A.** Its value is 5-10%.

**Q.** And the “ROS production compared to 0 dose/control” value ([3]; 1.5 h after new medium (moderate metabolic stress), 1.4 μM)?
**A.** Its value is “Significant efficacy”.

**Q.** What about the “ROS production compared to 0 dose/control” value ([3]; 1.5 h after new medium, 0.14 μM) of the same compound?
**A.** The value was “no effect”.

**Q.** What about the “ROS production compared to 0 dose/control” value ([3]; 1.5 h after new medium, 14 μM (2 μg/ml)) of the same compound?
**A.** The value was “Biggest ROS scavenging effect”.

**Q.** What about the “decline of ROS compared to control” value ([3]; donor one, Hi Medium+Palmitic acid, FIG. 11a) of the same compound?
**A.** Its value is “same decline”.

**Q.** What about the “amount of ROSs decreased by” value ([3]; primary human hepatocytes, metabolic stress situation) of the same compound?
**A.** The value was 15-40%.

**Q.** What about the “ROS compared to 0 dose/control (in words)” value ([3]; primary human hepatocytes) of the same compound?
**A.** Its value is “decreases ROS”.

**Q.** And the “ROS scavenging in equimolar comparison against vitamin E, glutathione, vitamin C (and morin dehydrate)” value ([3]; study 4, donors alpha (FIG. 5) and (FIG. 6), 14 μM)?
**A.** Its value is “superior or at least as good ROS scavenger; also recorded: superior antioxidant”.

**Q.** What does the source list for O.O.O=C([O-])[C@H](O)CO.O=C([O-])[C@H](O)CO.[Ca+2] [DGAcs, D-glyceric acid, calcium salt dehydrate]?
**A.** increase of plasma pyruvate ([1]; S1 and S9, 1 hour after administering 75 000 mg of glucose): ~20%; decline in NO ([1]; all measurements, vs control): approximately 10%; Average Change of the Concentration, plasma Alanine [1, 4]: 3.5%; Average Change of the Concentration, plasma Nitric Oxide [1, 4]: −9.9%; Average Change of the Concentration, plasma Pyruvate [1, 4]: 25.9%; Average Change of the Concentration, plasma Lactate ([1]; average of measurements, vs zero control): −31.9%; Average Change of the Concentration, plasma Nitric Oxide (BMI < 25) ([1]; average, subjects with BMI < 25, vs zero control): −13.4%; decrease of plasma lactate [1, 5]: ~38%; increase of plasma pyruvate [1, 5]: approximately 25%; decrease of plasma/blood lactate ([1]; summary statement, humans, compared to control, Example 2.3.3): 31.9% and 30%; viability compared to 0 dose (in words) ([2]; primary human hepatocytes, standard treatment, moderate metabolic stress): modestly increase the viability; ROS compared to 0 dose/control (in words) ([3]; primary human hepatocytes): decrease ROS levels significantly; also recorded: reduced ROS
